Results reported in patent US8067445B2, “N,N-disubstituted aminoalkylbiphenyl antagonists of prostaglandin D2 receptors” (Panmira Pharmaceuticals, LLC, priority 2008, dated 2011).

Tests used:
[1] = target: T1, recombinant human CRTH2 receptor (Homo sapiens, UniProt Q9Y5Y4); test: GTPγS binding assay; assay type: biochemical; conditions: +HSA (0.2% human serum albumin), 80 nM PGD2, CHO cell membranes; read-out: hDP2 GTPγS μM (+HSA)
T1 construct: expressed in transfected cells
T1 sequence (Q9Y5Y4 1-395): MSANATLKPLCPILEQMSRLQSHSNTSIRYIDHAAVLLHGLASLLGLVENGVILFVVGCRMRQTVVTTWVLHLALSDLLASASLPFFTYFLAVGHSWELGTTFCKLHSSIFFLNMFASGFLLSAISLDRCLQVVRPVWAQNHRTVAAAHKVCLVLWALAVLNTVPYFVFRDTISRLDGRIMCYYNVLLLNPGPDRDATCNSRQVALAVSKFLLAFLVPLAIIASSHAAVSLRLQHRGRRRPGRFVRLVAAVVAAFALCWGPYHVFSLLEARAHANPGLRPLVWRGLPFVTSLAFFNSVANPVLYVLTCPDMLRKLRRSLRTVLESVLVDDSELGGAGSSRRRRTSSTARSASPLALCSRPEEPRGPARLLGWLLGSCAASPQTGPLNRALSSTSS
Procedure: The ability of a compound to inhibit binding of GTP to DP2 is assessed via a membrane GTPγS assay. CHO cells stably expressing the recombinant human CRTH2 receptor are resuspended in 10 mM Hepes, 7.4 containing 1 mM DTT, lysed and centrifuged at 75,000×g to pellet the membranes. The membranes are resuspended in 10 mM Hepes, 7.4 containing 1 mM DTT and 10% glycerol. […] The reactions are terminated by rapid filtration through Whatman GF/B glass fibre filter plates. The filter plates are washed 3 times with 1 ml cold Assay Buffer and dried. Scintillant is then added to the plates and the radioactivity retained on the filters is determined on a Packard TopCount (Perkin Elmer). Specific binding is determined as total radioactive binding minus non-specific binding in the absence of the ligand (80 nM PGD2). IC50s were determined using Graphpad prism analysis of drug titration curves.

[2] = target: T2, human DP2 receptor (Homo sapiens, UniProt Q9Y5Y4); test: DP2/CRTH2 radioligand binding assay ([3H]PGD2); conditions: [3H]PGD2 binding, membranes of HEK293 cells expressing human DP2; read-out: hDP2
T2 construct: expressed in transfected cells
T2 sequence (Q9Y5Y4 1-395): T1 sequence (Q9Y5Y4 1-395)
How it was run: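 Membranes from HEK293 cells stably expressing recombinant human DP2 incubated 60 min at room temperature with 1 nM [3H]PGD2 and compound in pH 7.4 Hepes/MnCl2/EDTA buffer, ± 0.2% human serum albumin. Bound radioactivity measured after filtration; non-specific binding defined with 10 μM PGD2. IC50 from titration curves.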

[3] = target: T3, human DP1 receptor (Homo sapiens, UniProt Q13258); test: DP1 radioligand binding assay ([3H]BWA868C, platelet membranes); conditions: [3H]BWA868C binding, human platelet membranes; read-out: hDP1
T3 construct: tissue Biological Specialty Corporation; host or cells: human platelet membranes
T3 sequence (Q13258 1-359): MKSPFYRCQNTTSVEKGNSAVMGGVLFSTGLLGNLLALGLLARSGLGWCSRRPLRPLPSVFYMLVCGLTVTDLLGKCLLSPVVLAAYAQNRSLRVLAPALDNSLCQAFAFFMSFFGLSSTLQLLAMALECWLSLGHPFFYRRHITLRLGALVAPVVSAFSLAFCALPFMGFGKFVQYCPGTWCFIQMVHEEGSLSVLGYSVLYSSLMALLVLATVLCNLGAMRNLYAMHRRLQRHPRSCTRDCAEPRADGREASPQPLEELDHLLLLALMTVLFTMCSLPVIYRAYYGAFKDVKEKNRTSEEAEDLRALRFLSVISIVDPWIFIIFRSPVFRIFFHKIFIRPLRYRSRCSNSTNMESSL
How it was run: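 Human platelet membranes (20 μg protein/well) incubated 60 min at room temperature with 2 nM [3H]BWA868C and compound in 50 mM Hepes, 10 mM MnCl2, 1 mM EDTA, pH 7.4, ± 0.2% human serum albumin. Bound radioactivity measured after filtration; nonspecific binding defined with 10 μM BWA868C; IC50 from titration curves.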

| SMILES | IC50 [1] | IC50 [2] | IC50 [3] |
| --- | --- | --- | --- |
| CCN(Cc1cc(C(F)(F)F)ccc1-c1cc(CC(=O)O)ccc1OC)C(=O)N1CCCC1 [Compound 1-97, (2′-{[Ethyl-(pyrrolidine-1-carbonyl)-amino]-methyl}-6-methoxy-4′-trifluoromethyl-biphenyl-3-yl)-acetic acid] | < 0.3 µM | < 300 nM | 1000 to 30000 nM |
| CCN(Cc1cc(C(F)(F)F)ccc1-c1cc(C(C)C(=O)O)ccc1OC)C(=O)OCc1ccccc1 (stereo not drawn) [Compound 1-98, 2-{2′-[(Benzyloxycarbonyl-ethyl-amino)-methyl]-6-methoxy-4′-trifluoromethyl-biphenyl-3-yl}-propionic acid] | < 0.3 µM | < 300 nM | 1000 to 30000 nM |
| CCN(Cc1cc(C(F)(F)F)ccc1-c1cc(CC(=O)O)ccc1OC)C(=O)NC#N [Compound 1-99, [2′-(3-Cyano-1-ethyl-ureidomethyl)-6-methoxy-4′-trifluoromethyl-biphenyl-3-yl]-acetic acid] | 0.3 to 1 µM | < 300 nM | 1000 to 30000 nM |
| CCN(Cc1cc(C(F)(F)F)ccc1-c1cc(CC(=O)O)ccc1OC)S(=O)(=O)c1ccc(Cl)cc1 [Compound 1-100, (2′-{[(4-Chloro-benzenesulfonyl)-ethyl-amino]-methyl}-6-methoxy-4′-trifluoromethyl-biphenyl-3-yl)-acetic acid] | 1 to 30 µM | < 300 nM | 1000 to 30000 nM |
| CCN(Cc1cc(C(F)(F)F)ccc1-c1ccc(OC)c(CC(=O)O)c1)C(=O)OCc1ccccc1 [Compound 1-107, {2′-[(Benzyloxycarbonyl-ethyl-amino)-methyl]-4-methoxy-4′-trifluoromethyl-biphenyl-3-yl}-acetic acid] | < 0.3 µM | < 300 nM | 1000 to 30000 nM |
| CCN(Cc1cc(C(F)(F)F)ccc1-c1cc(Cl)cc(CC(=O)O)c1)C(=O)OCc1ccccc1 [Compound 1-108, {2′-[(Benzyloxycarbonyl-ethyl-amino)-methyl]-5-chloro-4′-trifluoromethyl-biphenyl-3-yl}-acetic acid] | < 0.3 µM | < 300 nM | 1000 to 30000 nM |
| CCN(Cc1cc(C(F)(F)F)ccc1-c1cc(CC(=O)O)cc(C(F)(F)F)c1)C(=O)OCc1ccccc1 [Compound 1-109, {2′-[(Benzyloxycarbonyl-ethyl-amino)-methyl]-5,4′-bis-trifluoromethyl-biphenyl-3-yl}-acetic acid] | < 0.3 µM | < 300 nM | 1000 to 30000 nM |
| CCN(Cc1cc(C(F)(F)F)ccc1-c1cc(CC(=O)O)ccc1OC)/C(=N/C#N)NCc1ccccc1 [Compound 1-111, [2′-(N′-Benzyl-N″-cyano-N-ethyl-guanidinomethyl)-6-methoxy-4′-trifluoromethyl-biphenyl-3-yl]-acetic acid] | < 0.3 µM | < 300 nM | 1000 to 30000 nM |
| CCN(Cc1cc(C(F)(F)F)ccc1-c1cc(CC(=O)O)ccc1OC)/C(=N/C#N)NCC1CCCCC1 [Compound 1-112, [2′-(N′-Cyano-N″-cyclohexylmethyl-N-ethyl-guanidinomethyl)-6-methoxy-4′-trifluoromethyl-biphenyl-3-yl]-acetic acid] | < 0.3 µM | < 300 nM | 1000 to 30000 nM |
| CCN(Cc1cc(C(F)(F)F)ccc1-c1cc(CC(=O)O)ccc1OC)/C(=N/C#N)NCC(C)(C)C [Compound 1-113, {2′-[N′-Cyano-N″-(2,2-dimethyl-propyl)-N-ethyl-guanidinomethyl]-6-methoxy-4′-trifluoromethyl-biphenyl-3-yl}-acetic acid] | < 0.3 µM | < 300 nM | 1000 to 30000 nM |
| CCN(Cc1cc(C(F)(F)F)ccc1-c1cc(CC(=O)O)ccc1OC)/C(=N/C#N)NCc1ccc(OC)cc1 [Compound 1-114, {2′-[N′-Cyano-N-ethyl-N″-(4-methoxy-benzyl)-guanidinomethyl]-6-methoxy-4′-trifluoromethyl-biphenyl-3-yl}-acetic acid] | < 0.3 µM | < 300 nM | 1000 to 30000 nM |

The next lines start with the values.

| IC50 [1] | IC50 [2] | IC50 [3] | SMILES |
| --- | --- | --- | --- |
| < 0.3 µM | < 300 nM | 1000 to 30000 nM | CCN(Cc1cc(C(F)(F)F)ccc1-c1cc(CC(=O)O)ccc1OC)C(=O)CSc1ccccc1 [Compound 1-117, (2′-{[Ethyl-(2-phenylsulfanyl-acetyl)-amino]-methyl}-6-methoxy-4′-trifluoromethyl-biphenyl-3-yl)-acetic acid] |
| < 0.3 µM | < 300 nM | 1000 to 30000 nM | CCN(Cc1cc(C(F)(F)F)ccc1-c1cc(CC(=O)O)ccc1OC)C(=O)C[S+]([O-])c1ccccc1 (stereo not drawn) [Compound 1-119, (2′-{[(2-Benzenesulfinyl-acetyl)-ethyl-amino]-methyl}-6-methoxy-4′-trifluoromethyl-biphenyl-3-yl)-acetic acid] |
| < 0.3 µM | < 300 nM | 1000 to 30000 nM | CCN(Cc1cc(C(F)(F)F)ccc1-c1cc(CC(=O)O)ccc1OC)C(=O)CS(=O)(=O)c1ccccc1 [Compound 1-120, (2′-{[(2-Benzenesulfonyl-acetyl)-ethyl-amino]-methyl}-6-methoxy-4′-trifluoromethyl-biphenyl-3-yl)-acetic acid] |
| < 0.3 µM | < 300 nM | 1000 to 30000 nM | CCN(Cc1cc(C(F)(F)F)ccc1-c1cc(CC(=O)O)ccc1OC)C(=O)Nc1ccccc1 [Compound 1-121, [2′-(1-Ethyl-3-phenyl-ureidomethyl)-6-methoxy-4′-trifluoromethyl-biphenyl-3-yl]-acetic acid] |
| 1 to 30 µM | < 300 nM | 300 to 1000 nM | CCN(Cc1cccc(OC)c1-c1cccc(CC(=O)O)c1)C(=O)OCc1ccccc1 [Compound 1-122, {2′-[(Benzyloxycarbonyl-ethyl-amino)-methyl]-6′-methoxy-biphenyl-3-yl}-acetic acid] |
| 0.3 to 1 µM | < 300 nM | 300 to 1000 nM | CCN(Cc1cccc(OC)c1-c1cccc(CC(=O)O)c1)C(=O)OCc1cc(F)cc(F)c1 [Compound 1-123, (2′-{[(3,5-Difluoro-benzyloxycarbonyl)-ethyl-amino]-methyl}-6′-methoxy-biphenyl-3-yl)-acetic acid] |
| 0.3 to 1 µM | < 300 nM | 300 to 1000 nM | CCN(Cc1cc(C(F)(F)F)ccc1-c1ccc(Cl)c(CC(=O)O)c1)C(=O)OCc1ccccc1 [Compound 1-125, {2′-[(Benzyloxycarbonyl-ethyl-amino)-methyl]-4-chloro-4′-trifluoromethyl-biphenyl-3-yl}-acetic acid] |
| < 0.3 µM | < 300 nM | 300 to 1000 nM | CCN(Cc1cc(C(F)(F)F)ccc1-c1cc(F)cc(CC(=O)O)c1)C(=O)OCc1ccccc1 [Compound 1-126, {2′-[(Benzyloxycarbonyl-ethyl-amino)-methyl]-5-fluoro-4′-trifluoromethyl-biphenyl-3-yl}-acetic acid] |
| < 0.3 µM | < 300 nM | 300 to 1000 nM | CCN(Cc1cc(C(F)(F)F)ccc1-c1ccc(F)c(CC(=O)O)c1)C(=O)OCc1ccccc1 [Compound 1-127, {2′-[(Benzyloxycarbonyl-ethyl-amino)-methyl]-4-fluoro-4′-trifluoromethyl-biphenyl-3-yl}-acetic acid] |
| < 0.3 µM | < 300 nM | 300 to 1000 nM | CCN(Cc1cc(C(F)(F)F)ccc1-c1cc(CC(=O)O)ccc1OCc1ccccc1)C(=O)OCc1ccccc1 [Compound 1-128, {6-Benzyloxy-2′-[(benzyloxycarbonyl-ethyl-amino)-methyl]-4′-trifluoromethyl-biphenyl-3-yl}-acetic acid] |
| < 0.3 µM | < 300 nM | 1000 to 30000 nM | CCN(Cc1cc(C(F)(F)F)ccc1-c1cc(CC(=O)O)ccc1OCC1CC1)C(=O)OCc1ccccc1 [Compound 1-130] |
